The source of these data is patent publication US20040110228A1, “Combinatorial organic synthesis of unique biologically active compounds” (priority 2002, published 2004).

Where a SMILES comes first, the peptide text is derived from it. Where no end group is shown, it is not given here. [ ]: non-standard residue; d: D form. ξ: configuration not given here. ξW = NC(Cc1c[nH]c2ccccc12)C(=O)O; dTic = O=C(O)[C@H]1Cc2ccccc2CN1; Tic = O=C(O)[CH]1Cc2ccccc2CN1; ξF = NC(Cc1ccccc1)C(=O)O

In data set [1] the test system is Holliday junction (HJ) intermediate. The data set can be described thus: in vitro Holliday junction trapping assay (recombination of radiolabeled and unlabeled DNA substrates). It is filed as biochemical. The following applies: 0.01 mg/ml concentrations of peptides; FIG. 56. The protocol: The eight macrocyclic compounds shown in FIGS. 55 were tested for their ability to bind to the HJ in an in vitro assay. The assay employs a recombination reaction between one radiolabeled double-stranded DNA substrate and an unlabeled partner DNA substrate. Successful recombination gives recombination products and very small amounts of HJ intermediate. A previously identified linear peptide dimer of […] was used as a positive control because it was known to accumulate HJs, as described in […] et al., 2000, supra). During the recombination reaction, two initial DNA cleavage and ligation reactions must take place to form the junction, and two subsequent DNA cleavage and ligation reactions resolve the HJs into double stranded recombination products.

The test system of data set [2] is Bare Lymphocyte Syndrome (BLS) cell line. It is filed as cell-based. As to the method:
Toxicity of peptides KWWCRW and WKHYNY was determined by testing the inhibition of a eukaryotic cell line using a vital stain. The peptides were determined to not be cytotoxic in a non-adherent eukaryotic cell line, Bare Lymphocyte Syndrome (BLS), at concentrations below 250 mg/ml. (Allicotti et al, Manuscript in Preparation). The MTT cytotoxicity assay was used to measure cytotoxicity of the class B synergimycin compounds (Mosmann, Immunol. Methods 65:55-63 (1983)). In this assay, 3-(4,5-dimethylthiazol-2-yl)-2,5-diphenyl tetrazolium bromide (MTT) is converted by live cells into the purple compound formazan. The amount of formazan produced is measured at OD570. The absorbance of the sample wells is compared to the absorbance of the control wells. The readings are used to calculate an IC50 for each peptide. This value represents the concentration of each peptide that reduces the growth of the BLS cells to 50% of the maximum growth measured in the controls.

Data set [3] addresses T1, Int protein (Escherichia phage lambda, UniProt P03700). To be noted: Cassell et al. 2000; cited from earlier work.
The target of data set [4] is T1, Int protein. The data set can be described thus: in vitro recombination reaction catalysed by the Int protein (attL/attR substrates, gel). It is filed as biochemical.
The test system of data set [5] is Salmonella typhimurium. The data set can be described thus: cell growth assay (OD600). The data set is classed as cell-based. To be noted: Salmonella enterica serovar Typhimurium Ames strain and LT2 strain; peptides in the medium.
The test system of data set [6] is bacterial strains, both gram positive and gram negative. The data set can be described thus: growth inhibition assays in microtiter plates (cell density at 600 nm). To be noted: 101 μg/ml and 100 μg/ml; FIG. 57. It is filed as cell-based. The protocol:
The eight macrocyclic compounds shown in FIGS. 55 were tested for their ability to bind to the HJ and inhibit bacterial growth in an in vivo assay. Growth inhibition assays were performed in microtiter plates, by comparing the growth of bacteria in the presence and absence of compounds. Cell density at 600 nm was determined for a series of bacterial strains, both gram positive and gram negative, in the presence and absence of macrocyclic compounds. […] Measurements were taken using a BioRad microtiter plate reader. […] The diluted cultures were shaken at 37° C. and optical densities were measured at 30-minute intervals in order to follow their growth. […]
In order to test the inhibitory potency of the peptides, cell growth assays were performed. […] The cell growth assays were performed in microtiter plates; measurements are taken using a BioRad microtiter plate reader.
Overnight bacterial cultures were diluted 1:20 into media and each test compound was added in no more than 10% of the volume of the final suspension. […] The diluted cultures were shaken at 37° C. and optical densities were measured at 30 minute intervals to follow their growth. […]
Four linear heptamers prepared according to FIGS. 63 were tested for their bacteria growth inhibition. […] Measurements were taken using a BioRad microtiter plate reader. […]

T1 sequence (P0A6Y1 whole entry): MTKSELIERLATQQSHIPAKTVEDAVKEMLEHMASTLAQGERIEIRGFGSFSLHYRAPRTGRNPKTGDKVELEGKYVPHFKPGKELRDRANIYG
T1 sequence (P03699 whole entry, further chain): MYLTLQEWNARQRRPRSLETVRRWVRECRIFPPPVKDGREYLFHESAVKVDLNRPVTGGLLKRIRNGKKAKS
T1 sequence (P0A6X7 whole entry, further chain): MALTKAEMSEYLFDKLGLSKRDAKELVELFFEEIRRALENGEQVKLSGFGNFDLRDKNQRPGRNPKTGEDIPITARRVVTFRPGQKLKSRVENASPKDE
T1 sequence (P03700 whole entry): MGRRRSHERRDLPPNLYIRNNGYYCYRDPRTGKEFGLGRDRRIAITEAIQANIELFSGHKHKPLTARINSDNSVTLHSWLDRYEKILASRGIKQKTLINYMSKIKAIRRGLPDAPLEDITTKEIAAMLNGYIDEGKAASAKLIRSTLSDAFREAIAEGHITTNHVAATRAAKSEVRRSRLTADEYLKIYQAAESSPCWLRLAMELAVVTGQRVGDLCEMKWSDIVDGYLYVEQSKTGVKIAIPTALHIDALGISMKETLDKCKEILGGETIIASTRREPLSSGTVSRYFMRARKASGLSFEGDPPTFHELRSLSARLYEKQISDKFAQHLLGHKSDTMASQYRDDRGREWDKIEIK

Consider `O=C1NC(Cc2c[nH]c3ccccc23)C(=O)N2Cc3ccccc3CC2C(=O)NC(Cc2ccccc2)C(=O)NC(Cc2c[nH]c3ccccc23)C(=O)N2Cc3ccccc3CC2C(=O)NC1Cc1ccccc1` (stereo not shown) [B] (cyclo(FW[Tic]FW[Tic]); configuration not given here), for which the “accumulation of HJ intermediates / binding to the HJ” value in data set [1] was “particularly active”.
As for WKHYNY [WKHYNY], the “concentrations at which not cytotoxic” value in data set [2] is “below 250 mg/ml”.
Still for that read-out and setting: for KWWCRW [KWWCRW, LysTrpTrpCysArgTrp] the value was “below 250 mg/ml”.
On to “TrpLys(His or Ala)TyrAsnTyr [WK(HorA)YNY]”, for which the “potency among Holliday junction-stabilizing peptide families” value in data set [3] was “the most potent”.
Regarding WRWYCR [WRWYCR, TrpArgTrpTyrCysArg], in data set [4], the “potency among peptides of a screen for site-specific recombination inhibitors” value is “the most potent”. Besides, in data set [5], the “inhibition of bacterial cell growth, FIG. 12” value is listed as “inhibition of bacterial cell growth”.
With `O=C1NC(Cc2ccccc2)C(=O)N2Cc3ccccc3CC2C(=O)NC(Cc2ccccc2)C(=O)NC(Cc2ccccc2)C(=O)N2Cc3ccccc3CC2C(=O)NC1Cc1ccccc1` (stereo not shown) [A] (cyclo(FF[Tic]FF[Tic]); configuration not given here), in data set [1], the “accumulation of HJ intermediates / binding to the HJ” value is “particularly active”.
Turning to `O=C1NC(Cc2ccccc2)C(=O)N2Cc3ccccc3C[C@@H]2C(=O)NC(Cc2ccccc2)C(=O)NC(Cc2ccccc2)C(=O)N2Cc3ccccc3C[C@@H]2C(=O)NC1Cc1ccccc1` (stereo partly shown) [D] (cyclo([dTic][ξF][ξF][dTic][ξF][ξF])), the “accumulation of HJ intermediates / binding to the HJ” value in data set [1] is on record as “particularly active”.
Regarding `O=C1CNC(=O)C(Cc2c[nH]c3ccccc23)NC(=O)C(Cc2ccccc2)NC(=O)CNC(=O)C(Cc2c[nH]c3ccccc23)NC(=O)C(Cc2ccccc2)N1` (stereo not shown) [H] (cyclo(GFWGFW); configuration not given here), the “bacterial growth inhibition by macrocyclic compounds” value in data set [6] is “greatest level of activity”.
Turning to `O=C1NC(Cc2c[nH]c3ccccc23)C(=O)N2Cc3ccccc3C[C@@H]2C(=O)NC(Cc2ccccc2)C(=O)NC(Cc2c[nH]c3ccccc23)C(=O)N2Cc3ccccc3C[C@@H]2C(=O)NC1Cc1ccccc1` (stereo partly shown) [E] (cyclo([dTic][ξF][ξW][dTic][ξF][ξW])), in data set [1], the “accumulation of HJ intermediates / binding to the HJ” value is “particularly active”.
